Entries after “also recorded” stand apart in the source; their conditions may differ.
Key:
[1] = tested on: fMLP-stimulated human neutrophils on human umbilical vein endothelial cells; test: Inhibition of neutrophil adherence to endothelial cells; type: cell-based; settings: for inhibition of neutrophil adhesion to endothelial cells: fMLP-stimulated neutrophils, 2 hours, 37° C.; for effect of adenosine deaminase co-treatment on inhibition of neutrophil adhesion: with adenosine deaminase 0.125 U/mL
Experimental: The ability of an adenosine kinase inhibitor to affect neutrophil adherence to fibroblasts and endothelial cells was evaluated in a cell culture model. […] These incubations were carried out in the presence of fMLP-stimulated human neutrophils isolated from whole blood (1.25×10^6/mL) with or without adenosine deaminase (0.125 U/mL). At the end of the incubation, the medium was removed and the monolayers of fibroblasts or endothelial cells and adherent neutrophils were fixed by addition of formaldehyde (3.7%) and, after washing to remove non-adherent neutrophils, adherent neutrophils were stained with Weigart's hematoxylin and counted under a light microscope.

[2] = tested on: Mycobacterium butyricum adjuvant arthritis; test: Adjuvant arthritis in rats; type: in vivo, Lewis rats
Experimental: Lewis rats received a single subcutaneous tail injection of 0.75 mg Mycobacterium butyricum mixed in paraffin oil on day 0. […] Hind paw volume was measured by Mercury displacement.

[3] = mouse, in vivo; cited from earlier work
[4] = tested on: adenosine uptake, guinea pig brain slices; settings: cited from earlier work
[5] = cited from earlier work
[6] = tested on: adenosine uptake, rat brain slices; settings: cited from earlier work
[7] = tested on: adenosine release, rat cardiomyocytes; settings: cited from earlier work
adenosine kinase = target: T1, adenosine kinase (Bos taurus, UniProt A0AAA9RZ79); test: Adenosine kinase inhibition in intact cells (capillary endothelial cells from bovine heart); type: cell-based; settings: 20 μM 2'-deoxycoformycin, 5 μM [3H]adenosine
T1 construct: endogenous in cells; host or cells: capillary endothelial cells from bovine heart
Experimental: Inhibition of adenosine kinase in intact cells was determined from the amount of incorporation of radioisotope from adenosine into the adenylates (AMP, ADP and ATP) in the presence of adenosine deaminase inhibition. […] The media was then discarded and the cells were treated with 50 μl 0.4M perchloric acid, centrifuged and the supernalants neutralized with 100 μl alanine: freon (1:4).

[8] = target: T2, purified pig heart adenosine kinase (Sus scrofa, UniProt A0A5G2R0F5); test: Inhibition of adenosine kinase activity (purified pig heart enzyme); type: biochemical
T2 construct: purified pig heart adenosine kinase; from tissue; host or cells: pig heart
Experimental: Inhibition of enzyme activity was determined using a 0.1 mL assay mixture containing 50 mM Tris-maleate, pH 7.0, 0.1% (w/v) BSA, 1 mM ATP, 1 mM MgCl2, 0.5 μM [U-^14 C]adenosine (500 mCi/mmol) and 0.1 μg of purified pig heart adenosine kinase. Different concentrations of the test compounds were incubated in the assay mixture for 20 min. at 37° C. From each reaction mixture, 20 μl portions were removed and spotted on 2 cm^2 pieces of Whatman DE81 filter paper. […] The papers were dried, and [^14 C]AMP measured by scintillation counting.

E. coli LPS endotoxemia = test: Survival in endotoxemia (E. coli LPS) in mice; type: in vivo, Balb/C mice; settings: 200 mg/kg i.p. 30 minutes prior to LPS and drug
From the text: An adenosine kinase inhibitor (GP-1-515) was used to increase endogenous adenosine production in vivo.

TNF-α = test: Inhibition of TNF-alpha production in endotoxemic mice (ELISA); type: in vivo, Balb/C mice; settings: 200 mg/kg i.p. 30 minutes prior to LPS and GP-1-515
Experimental: In these experiments, plasma TNF-α levels were measured in GP-1-515and placebo-treated mice (8 animals per group). Balb/C mice received an intravenous injection of E. coli LPS (900 ug/animal) (Sigma Chemical Co.) followed immediately by a second injection with 0.1 mg/kg of GP-1-515 or vehicle. Some animals were pretreated with an intraperitoneal injection of the adenosine receptor antagonist 8SPT. One hour later, blood was obtained from ether anesthetized animals by intracardiac puncture using a heparinized syringe. Blood samples were chilled on ice, centrifuged at 5000 rpm in a microcentrifuge for 5 minutes, and the plasma removed. TNF-α levels in the plasma were assayed by ELISA according to the instructions provided by the manufacturer (Endogen, Cambridge, Mass.).

[9] = Acute i.v. hemodynamics in the rat; type: in vivo, Sprague Dawley rats
Experimental: The ability of the adenosine kinase inhibitor GP-1-238 to show effects on blood pressure, heart rate or body temperature was compared in anesthetized and conscious rats. Sprague Dawley rats were anesthetized with pentobarbital and catheterized in the jugular vein and carotid artery. GP-1-238 (0.1-5 mg/kg/min) was infused intravenously in stepwise increments (0.2 mL/min×5 minutes). The experiments in conscious rats were conducted in the same manner after rats had been catheterized and allowed to recover for 2 days following surgery.

cardiac adenosine kinase = test: Inhibition of cardiac adenosine kinase in vivo; settings: conscious rats, i.v.
[10] = tested on: adenosine release, isolated guinea pig hearts; settings: cited from earlier work
[11] = conscious animals, doses greatly in excess of that required to inhibit cardiac adenosine kinase

T2 sequence (A0A5G2R0F5 1-362): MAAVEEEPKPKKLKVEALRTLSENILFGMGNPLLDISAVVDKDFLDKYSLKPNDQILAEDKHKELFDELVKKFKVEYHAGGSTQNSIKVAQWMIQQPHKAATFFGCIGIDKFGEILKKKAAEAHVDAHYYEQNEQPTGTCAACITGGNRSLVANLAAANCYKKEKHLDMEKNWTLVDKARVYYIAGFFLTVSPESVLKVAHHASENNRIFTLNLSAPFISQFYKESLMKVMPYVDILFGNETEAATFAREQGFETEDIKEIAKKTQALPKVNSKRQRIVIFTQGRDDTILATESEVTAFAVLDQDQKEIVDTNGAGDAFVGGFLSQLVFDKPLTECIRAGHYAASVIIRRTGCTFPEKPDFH
T1 sequence (A0AAA9RZ79 1-362): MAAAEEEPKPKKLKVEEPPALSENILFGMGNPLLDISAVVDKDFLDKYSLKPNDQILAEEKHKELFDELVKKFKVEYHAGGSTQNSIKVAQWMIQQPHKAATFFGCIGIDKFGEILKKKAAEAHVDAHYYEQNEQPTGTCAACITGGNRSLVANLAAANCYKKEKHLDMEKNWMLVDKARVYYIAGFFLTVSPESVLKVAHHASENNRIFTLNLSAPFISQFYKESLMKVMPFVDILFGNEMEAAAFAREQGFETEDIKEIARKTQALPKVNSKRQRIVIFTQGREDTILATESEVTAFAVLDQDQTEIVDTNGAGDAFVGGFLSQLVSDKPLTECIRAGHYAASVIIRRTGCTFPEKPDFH

For `CNc1ncnc2c1ncn2[C@@H]1O[C@H](CN)[C@@H](O)[C@H]1O` [GP-1-272], the “inhibition of neutrophil adhesion to endothelial cells” value [1] was “inhibit neutrophil adhesion to endothelial cells; also recorded: dose-dependent inhibition” and the “effect of adenosine deaminase co-treatment on inhibition of neutrophil adhesion” value [1] was “reversed by adenosine deaminase treatment; also recorded: reversal of this inhibition”.

In the case of `C[C@H]1O[C@@H](n2cc(I)c3c(N)ncnc32)[C@H](O)[C@@H]1O` [GP-1-456, 5'-deoxy-5-iodotubercidin], the “reduction of hind paw edema” value ([2]; 3 mg/kg p.o.) is given as “significant reduction of hind paw edema”, the “total mean hind paw edema” value ([2]; 3 mg/kg p.o. day 1 through 19, day 19, untreated 2.55±0.20, p<0.05) is given as 1.41 ± 0.21 mL and the “body temperature in mice” value [3] is given as “hypothermia”. For the same molecule, the “flaccidity and locomotor activity in mice” value [3] was “pronounced general flaccidity and much-reduced spontaneous locomotor activity”, the “adenosine uptake, guinea pig brain slices” value [4] was “inhibited” and the “blood pressure and heart rate in anesthetized rats” value [5] was “decrease blood pressure and heart rate”. The “inhibition of neutrophil adhesion to endothelial cells” value [1] was “inhibit neutrophil adhesion to endothelial cells; also recorded: dose-dependent inhibition”, the “effect of adenosine deaminase co-treatment on inhibition of neutrophil adhesion” value [1] was “reversed by adenosine deaminase treatment; also recorded: reversal of this inhibition” and the “adenosine uptake, rat brain slices” value [6] was “inhibited”.

For `OC[C@H]1O[C@@H](n2cnc3c2N=CNC[C@H]3O)C[C@@H]1O` [2'-deoxycoformycin], the “adenosine release from rat cardiomyocytes” value ([7]; ADA inhibition alone) is given as “no effect on adenosine release”.

Work on `C[C@H]1O[C@@H](n2nc(-c3ccccc3)c3c(Nc4ccccc4)ncnc32)[C@H](O)[C@@H]1O` [GP-1-665] yielded an IC50 (adenosine kinase) of 4.5 nM.

Work on `OC[C@H]1O[C@@H](n2cc(-c3ccco3)c3c(Nc4ccccc4)ncnc32)[C@H](O)[C@@H]1O` [GP-1-718] yielded an IC50 [8] of less than 10 nM.

With `Cn1c(=O)c2[nH]c(-c3ccc(S(=O)(=O)O)cc3)nc2n(C)c1=O` [8-p-sulphophenyltheophylline, reference compound] the “effect on GP-1-515-induced protection” value (E. coli LPS endotoxemia) was “completely inhibited the protective effect of GP-1-515; also recorded: blocking the GP-1-515-induced protection” and the “effect on GP-1-515-induced decrease of plasma TNF-α” value (TNF-α) was “The decrease was prevented”.

For `NC[C@H]1O[C@@H](n2cnc3c(N)ncnc32)[C@H](O)[C@@H]1O` [GP-1-238], the “effect on blood pressure, conscious animals” value [9, 11] was “No effects were observed”, the “effect on heart rate, conscious animals” value [9, 11] was “No effects were observed” and the “effect on temperature, conscious animals” value [9, 11] was “No effects were observed”. The “hemodynamic effects, conscious rats” value ([9]; i.v. infusion 0.1-5 mg/kg/min, conscious rats, in contrast to anesthetized animals) was “no hemodynamic effects were seen” and the “inhibition of adenosine kinase in vivo” value (cardiac adenosine kinase) was “completely inhibited adenosine kinase in vivo”.

In the case of `NC[C@H]1O[C@@H](n2cnc3c(N)ncnc32)[C@H](O)[C@@H]1O` [5'-amino-5'-deoxyadenosine], the “adenosine release, isolated guinea pig hearts, no ADA inhibition” value ([10]; absence of ADA inhibition) is listed as “not apparent in the absence of ADA inhibition”, the “increase of adenosine release, isolated guinea pig hearts” value ([10]; in the presence of EHNA) is listed as 15 -fold and the “increase in adenosine release from rat cardiomyocytes” value ([7]; inhibition of ADA together with adenosine kinase) is listed as 6 -fold.
